Reference: article PMC5391474, “Investigation of the Role of Protein Kinase D in Human Rhinovirus Replication” (Journal of Virology, 2017)

Key:
Test in all cases: biochemical
Parameters in all cases: in vitro kinase selectivity panel, protein and lipid kinases, single concentration, ATP at Km
Details in all cases: ATP at Km
FGFR4(h) = FGFR4(h) (Homo sapiens, UniProt P22455)
Method in brief: (§1)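 Single-point screen against a protein and lipid kinase panel: inhibitor at 1 μM. ATP concentration for every kinase equivalent to its Km.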

PIK3CA / p85 (h) = biological target: T1, PIK3CA / p85 (h) (Homo sapiens, UniProt P42336)
T1 construct: p110alpha/p85
Method in brief: as §1

EphA2(h) = EphA2(h) (Homo sapiens, UniProt P29317)
Method in brief: as §1

CK1γ3(h) = biological target: T2, CK1γ3(h) (Homo sapiens, UniProt Q9Y6M4)
T2 construct: gene CSNK1G3
Method in brief: as §1

LKB1(h) = biological target: T3, LKB1(h) (Homo sapiens, UniProt Q15831)
T3 construct: gene STK11
Method in brief: as §1

MEK1(h) = biological target: T4, MEK1(h) (Homo sapiens, UniProt Q02750)
T4 construct: gene MAP2K1
Method in brief: as §1

CHKB = CHKB (Homo sapiens, UniProt Q9Y259)
Method in brief: as §1

PRK2(h) = biological target: T5, PRK2(h) (Homo sapiens, UniProt Q16513)
T5 construct: gene PKN2
Method in brief: as §1

IR(h) = biological target: T6, IR(h) (Homo sapiens, UniProt P06213)
T6 construct: gene INSR
Method in brief: as §1

PKCε(h) = biological target: T7, PKCε(h) (Homo sapiens, UniProt Q02156)
T7 construct: gene PRKCE
Method in brief: as §1

ZIPK(h) = biological target: T8, ZIPK(h) (Homo sapiens, UniProt O43293)
T8 construct: gene DAPK3
Method in brief: as §1

EGFR(T790M)(h) = EGFR(T790M)(h) (Homo sapiens, UniProt P00533, T790M)
Method in brief: as §1

PAK2(h) = PAK2(h) (Homo sapiens, UniProt Q13177)
Method in brief: as §1

Bmx(h) = Bmx(h) (Homo sapiens, UniProt P51813)
Method in brief: as §1

PIK3CB / p85 (h) = biological target: T9, PIK3CB / p85 (h) (Homo sapiens, UniProt P42338)
T9 construct: p110beta/p85
Method in brief: as §1

FAK(h) = biological target: T10, FAK(h) (Homo sapiens, UniProt Q05397)
T10 construct: gene PTK2
Method in brief: as §1

Fer(h) = Fer(h) (Homo sapiens, UniProt P16591)
Method in brief: as §1

Fes(h) = Fes(h) (Homo sapiens, UniProt P07332)
Method in brief: as §1

Chain of Fes(h) (P07332 whole entry): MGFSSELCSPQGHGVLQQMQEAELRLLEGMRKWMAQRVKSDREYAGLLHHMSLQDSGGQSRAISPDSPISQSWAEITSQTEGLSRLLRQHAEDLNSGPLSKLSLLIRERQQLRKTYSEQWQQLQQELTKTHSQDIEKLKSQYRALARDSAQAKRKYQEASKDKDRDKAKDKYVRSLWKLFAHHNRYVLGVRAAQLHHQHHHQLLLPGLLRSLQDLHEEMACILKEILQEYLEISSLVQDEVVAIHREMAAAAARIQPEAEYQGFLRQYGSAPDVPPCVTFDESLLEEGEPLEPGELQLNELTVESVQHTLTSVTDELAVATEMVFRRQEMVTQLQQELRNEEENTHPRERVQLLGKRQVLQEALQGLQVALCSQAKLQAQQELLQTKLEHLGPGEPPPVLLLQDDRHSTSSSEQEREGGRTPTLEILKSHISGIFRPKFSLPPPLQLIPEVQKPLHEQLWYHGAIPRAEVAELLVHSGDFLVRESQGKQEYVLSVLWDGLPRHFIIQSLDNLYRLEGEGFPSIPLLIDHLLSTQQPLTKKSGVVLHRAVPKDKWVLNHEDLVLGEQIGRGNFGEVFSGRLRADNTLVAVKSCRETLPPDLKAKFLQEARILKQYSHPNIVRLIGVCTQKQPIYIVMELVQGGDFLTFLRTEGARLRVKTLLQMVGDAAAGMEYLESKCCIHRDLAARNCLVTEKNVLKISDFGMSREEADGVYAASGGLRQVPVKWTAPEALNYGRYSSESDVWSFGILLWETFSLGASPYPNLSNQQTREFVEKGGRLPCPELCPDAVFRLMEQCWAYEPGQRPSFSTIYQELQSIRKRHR
T8 sequence (O43293 whole entry): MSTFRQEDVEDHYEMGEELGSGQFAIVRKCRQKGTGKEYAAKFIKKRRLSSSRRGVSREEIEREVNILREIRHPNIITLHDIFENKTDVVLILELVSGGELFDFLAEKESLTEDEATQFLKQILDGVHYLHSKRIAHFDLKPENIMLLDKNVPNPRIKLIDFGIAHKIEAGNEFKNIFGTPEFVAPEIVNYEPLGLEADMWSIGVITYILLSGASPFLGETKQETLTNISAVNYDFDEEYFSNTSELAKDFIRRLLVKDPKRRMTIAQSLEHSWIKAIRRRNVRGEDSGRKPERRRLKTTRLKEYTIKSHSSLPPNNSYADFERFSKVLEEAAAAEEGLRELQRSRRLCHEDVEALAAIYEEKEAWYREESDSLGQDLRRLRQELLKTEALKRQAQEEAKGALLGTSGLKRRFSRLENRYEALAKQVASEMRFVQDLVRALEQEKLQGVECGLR
Chain of Fer(h) (P16591 whole entry): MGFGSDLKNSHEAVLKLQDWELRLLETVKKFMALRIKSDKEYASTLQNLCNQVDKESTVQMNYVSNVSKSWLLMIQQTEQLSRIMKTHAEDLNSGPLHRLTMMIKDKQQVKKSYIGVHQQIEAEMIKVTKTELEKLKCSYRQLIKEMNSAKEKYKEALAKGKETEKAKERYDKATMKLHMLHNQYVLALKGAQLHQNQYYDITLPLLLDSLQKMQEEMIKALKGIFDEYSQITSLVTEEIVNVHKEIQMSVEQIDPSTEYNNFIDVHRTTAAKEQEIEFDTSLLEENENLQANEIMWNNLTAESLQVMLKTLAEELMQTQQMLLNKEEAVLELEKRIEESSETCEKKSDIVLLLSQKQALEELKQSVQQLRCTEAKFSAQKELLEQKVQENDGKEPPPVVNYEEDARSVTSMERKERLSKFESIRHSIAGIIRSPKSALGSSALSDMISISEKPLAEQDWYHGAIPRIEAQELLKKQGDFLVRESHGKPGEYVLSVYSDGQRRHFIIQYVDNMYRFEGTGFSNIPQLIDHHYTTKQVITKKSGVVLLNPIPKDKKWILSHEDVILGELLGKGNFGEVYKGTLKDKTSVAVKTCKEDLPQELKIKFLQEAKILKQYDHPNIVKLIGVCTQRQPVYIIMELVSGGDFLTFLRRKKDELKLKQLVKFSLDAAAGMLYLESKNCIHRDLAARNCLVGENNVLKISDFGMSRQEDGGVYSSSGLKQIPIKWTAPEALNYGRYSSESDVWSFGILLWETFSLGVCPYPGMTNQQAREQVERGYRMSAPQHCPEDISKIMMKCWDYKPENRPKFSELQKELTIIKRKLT
Chain of FGFR4(h) (P22455 whole entry): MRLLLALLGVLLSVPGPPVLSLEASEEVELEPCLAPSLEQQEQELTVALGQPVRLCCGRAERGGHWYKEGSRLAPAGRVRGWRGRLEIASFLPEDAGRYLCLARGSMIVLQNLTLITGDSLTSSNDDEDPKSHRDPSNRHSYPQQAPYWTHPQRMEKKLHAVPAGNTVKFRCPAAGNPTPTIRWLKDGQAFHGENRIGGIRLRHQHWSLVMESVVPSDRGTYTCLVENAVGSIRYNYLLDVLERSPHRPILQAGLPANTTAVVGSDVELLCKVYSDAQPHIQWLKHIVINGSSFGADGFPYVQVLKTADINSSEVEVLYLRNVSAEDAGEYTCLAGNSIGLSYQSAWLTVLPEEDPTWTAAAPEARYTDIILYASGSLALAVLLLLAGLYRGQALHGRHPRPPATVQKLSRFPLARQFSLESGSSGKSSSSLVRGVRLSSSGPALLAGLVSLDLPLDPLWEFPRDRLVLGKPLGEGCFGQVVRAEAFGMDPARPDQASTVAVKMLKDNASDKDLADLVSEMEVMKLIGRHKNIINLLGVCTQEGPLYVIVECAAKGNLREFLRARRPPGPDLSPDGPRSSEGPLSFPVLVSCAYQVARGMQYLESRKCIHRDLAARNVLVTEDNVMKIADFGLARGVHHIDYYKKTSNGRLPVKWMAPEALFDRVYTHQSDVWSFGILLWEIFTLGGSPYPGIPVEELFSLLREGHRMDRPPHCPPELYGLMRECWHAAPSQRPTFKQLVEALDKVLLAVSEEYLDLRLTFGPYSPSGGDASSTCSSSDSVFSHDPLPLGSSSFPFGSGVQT
T6 sequence (P06213 whole entry): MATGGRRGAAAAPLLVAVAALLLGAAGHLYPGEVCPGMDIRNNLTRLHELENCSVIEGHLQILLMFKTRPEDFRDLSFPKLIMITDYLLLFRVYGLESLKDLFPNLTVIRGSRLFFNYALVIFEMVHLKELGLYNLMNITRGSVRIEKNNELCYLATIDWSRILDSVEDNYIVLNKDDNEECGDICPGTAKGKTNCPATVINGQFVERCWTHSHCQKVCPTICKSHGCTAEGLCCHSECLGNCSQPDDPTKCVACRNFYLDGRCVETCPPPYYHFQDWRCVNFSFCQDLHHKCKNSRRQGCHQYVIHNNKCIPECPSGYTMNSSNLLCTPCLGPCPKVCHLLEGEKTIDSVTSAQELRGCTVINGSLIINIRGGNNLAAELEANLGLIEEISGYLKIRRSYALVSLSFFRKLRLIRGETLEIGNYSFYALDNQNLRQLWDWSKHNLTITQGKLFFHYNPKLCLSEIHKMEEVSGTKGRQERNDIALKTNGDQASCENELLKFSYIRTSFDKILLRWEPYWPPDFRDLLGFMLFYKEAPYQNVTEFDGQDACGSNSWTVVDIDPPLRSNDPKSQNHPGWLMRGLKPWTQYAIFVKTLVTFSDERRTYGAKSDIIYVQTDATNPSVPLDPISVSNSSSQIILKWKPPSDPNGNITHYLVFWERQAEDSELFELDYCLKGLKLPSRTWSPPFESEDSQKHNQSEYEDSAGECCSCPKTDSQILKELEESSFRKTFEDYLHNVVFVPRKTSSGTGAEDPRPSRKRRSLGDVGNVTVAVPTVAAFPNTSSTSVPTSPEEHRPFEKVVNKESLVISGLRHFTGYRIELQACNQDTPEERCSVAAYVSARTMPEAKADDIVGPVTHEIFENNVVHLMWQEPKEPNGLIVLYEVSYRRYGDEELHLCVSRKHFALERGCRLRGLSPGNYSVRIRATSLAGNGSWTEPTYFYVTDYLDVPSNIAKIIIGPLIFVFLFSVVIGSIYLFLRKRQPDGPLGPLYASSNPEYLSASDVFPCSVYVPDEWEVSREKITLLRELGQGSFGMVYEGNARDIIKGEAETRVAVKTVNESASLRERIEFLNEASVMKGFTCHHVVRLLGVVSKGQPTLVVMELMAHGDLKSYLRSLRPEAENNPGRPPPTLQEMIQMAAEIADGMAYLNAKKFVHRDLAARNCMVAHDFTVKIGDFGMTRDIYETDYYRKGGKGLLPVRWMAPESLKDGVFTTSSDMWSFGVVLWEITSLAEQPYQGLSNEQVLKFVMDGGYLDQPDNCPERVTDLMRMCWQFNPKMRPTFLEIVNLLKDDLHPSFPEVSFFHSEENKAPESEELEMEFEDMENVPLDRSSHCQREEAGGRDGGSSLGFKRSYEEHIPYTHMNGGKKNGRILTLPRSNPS
Chain of PAK2(h) (Q13177 whole entry): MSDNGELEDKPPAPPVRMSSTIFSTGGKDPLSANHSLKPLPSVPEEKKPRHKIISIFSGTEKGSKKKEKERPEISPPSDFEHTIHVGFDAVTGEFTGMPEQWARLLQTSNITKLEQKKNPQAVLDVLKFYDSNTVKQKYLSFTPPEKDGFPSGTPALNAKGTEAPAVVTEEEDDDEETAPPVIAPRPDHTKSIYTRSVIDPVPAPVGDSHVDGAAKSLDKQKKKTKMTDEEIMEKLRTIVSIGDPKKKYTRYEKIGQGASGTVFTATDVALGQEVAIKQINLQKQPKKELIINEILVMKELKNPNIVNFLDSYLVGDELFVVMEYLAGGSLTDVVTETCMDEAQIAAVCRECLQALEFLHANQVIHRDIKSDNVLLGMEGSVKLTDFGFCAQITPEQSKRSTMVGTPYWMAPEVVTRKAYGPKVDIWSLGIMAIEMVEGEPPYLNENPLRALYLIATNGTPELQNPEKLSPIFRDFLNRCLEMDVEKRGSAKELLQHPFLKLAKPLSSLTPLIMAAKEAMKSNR

## CC[C@@H](N)CNc1ccnc(-c2cc(-c3cnn(C)c3)ccc2O)n1 [CRT0066101]
FGFR4(h)
  inhibition at 1 µM: -2%
PIK3CA / p85 (h)
  inhibition at 1 µM: -1%
EphA2(h)
  inhibition at 1 µM: 2%
CK1γ3(h)
  inhibition at 1 µM: -3%
LKB1(h)
  inhibition at 1 µM: -13%
MEK1(h)
  inhibition at 1 µM: 9%
CHKB
  inhibition at 1 µM: 3%
PRK2(h)
  inhibition at 1 µM: 77%
IR(h)
  inhibition at 1 µM: -22%
PKCε(h)
  inhibition at 1 µM: 12%
ZIPK(h)
  inhibition at 1 µM: 7%
EGFR(T790M)(h)
  inhibition at 1 µM: -2%
PAK2(h)
  inhibition at 1 µM: 9%
Bmx(h)
  inhibition at 1 µM: 26%
PIK3CB / p85 (h)
  inhibition at 1 µM: 0%
FAK(h)
  inhibition at 1 µM: -11%
Fer(h)
  inhibition at 1 µM: -25%
Fes(h)
  inhibition at 1 µM: -20%
